Reference: US10253052B2, “HBED-bisphosphonates, radiometal conjugates and their use as theranostic agents” (Five Eleven Pharma Inc., priority 2015, dated 2019)

How the values were obtained:
[1] = In vivo biodistribution in mice; set-up: species or system normal CD-1 male mice; settings: iv
Method: Biodistribution experiments were performed by intravenously administering ^68Ga labeled 1a-h, 2, 3, BPAMD, and [^18F]NaF into normal, healthy male CD-1 mice (25-30 g). The injection activity was 20-30 μCi/animal. […] Organs of interest were harvested, weighed, and counts of radioactivity were measured by a gamma counter. The biodistribution of each sample was calculated as a percentage of the injected dose per gram of wet tissue weight (% ID/g). Tibia and femur bones were harvested and counted as bone samples.

[2] = In vitro binding to hydroxyapatite; settings: 20 mg hydroxyapatite in saline, 10 min at room temperature
Method: Hydroxyapatite (20 mg, Sigma-Aldrich, reagent grade powder) was incubated in isotonic saline (1 mL) for 24 h. Subsequently, either ^68Ga labeled 1a-h, 2, 3, BPAMD, or [^18F]NaF (1 μCi) was added to the hydroxyapatite suspension. After vortexing for 10 seconds, the suspension was incubated for 10 min at room temperature. The samples were then centrifuged at 10,000 rpm for 3 min and the supernatant was removed. The hydroxyapatite fraction was washed twice with saline (1 mL). Radioactivity in the combined supernatants and the hydroxyapatite fraction was measured using a gamma counter. The proportion of the ^68Ga complex binding to hydroxyapatite was determined as percent of ^68Ga absorbed to hydroxyapatite.

SMILES: O=C([O-])CN(CCN(CC(=O)[O-])Cc1cc(CCC(=O)NC(P(=O)(O)O)P(=O)(O)O)ccc1[O-])Cc1cc(CCC(=O)NC2C(O)OC(CO)C(O)C2O)ccc1[O-].[68Ga+3] (stereo not shown) [[^68Ga]1b]
- bone to blood ratio ([1]; 2 min): 0.9
- bone to muscle ratio ([1]; 2 min): 4.7
- Biodistribution: Blood ([1]; 2 min post injection): 9.22 ± 0.83 % dose/g
- Biodistribution: Bone ([1]; 2 min post injection): 8.34 ± 0.88 % dose/g
- Biodistribution: Brain ([1]; 2 min post injection): 0.20 ± 0.04 % dose/g
- Biodistribution: Heart ([1]; 2 min post injection): 3.01 ± 0.23 % dose/g
- Biodistribution: Kidney ([1]; 2 min post injection): 18.5 ± 2.45 % dose/g
- Biodistribution: Liver ([1]; 2 min post injection): 2.58 ± 0.22 % dose/g
- Biodistribution: Lung ([1]; 2 min post injection): 5.11 ± 0.28 % dose/g
- Biodistribution: Muscle ([1]; 2 min post injection): 1.79 ± 0.28 % dose/g
- Biodistribution: Pancreas ([1]; 2 min post injection): 1.51 ± 0.06 % dose/g
- Biodistribution: Skin ([1]; 2 min post injection): 2.55 ± 0.58 % dose/g
- Biodistribution: Spleen ([1]; 2 min post injection): 2.03 ± 0.13 % dose/g
- bone to blood ratio ([1]; 30 min): 20
- bone to muscle ratio ([1]; 30 min): 68
- Biodistribution: Blood ([1]; 30 min (0.5 hr) post injection): 0.83 ± 0.04 % dose/g
- Biodistribution: Bone ([1]; 30 min (0.5 hr) post injection): 16.6 ± 1.37 % dose/g
- Biodistribution: Brain ([1]; 30 min (0.5 hr) post injection): 0.03 ± 0.01 % dose/g
- Biodistribution: Heart ([1]; 30 min (0.5 hr) post injection): 0.62 ± 0.04 % dose/g
- Biodistribution: Kidney ([1]; 30 min (0.5 hr) post injection): 3.21 ± 1.59 % dose/g
- Biodistribution: Liver ([1]; 30 min (0.5 hr) post injection): 1.20 ± 0.10 % dose/g
- Biodistribution: Lung ([1]; 30 min (0.5 hr) post injection): 1.31 ± 0.29 % dose/g
- Biodistribution: Muscle ([1]; 30 min (0.5 hr) post injection): 0.24 ± 0.03 % dose/g
- Biodistribution: Pancreas ([1]; 30 min (0.5 hr) post injection): 0.24 ± 0.02 % dose/g
- Biodistribution: Skin ([1]; 30 min (0.5 hr) post injection): 0.60 ± 0.02 % dose/g
- Biodistribution: Spleen ([1]; 30 min (0.5 hr) post injection): 0.75 ± 0.22 % dose/g
- bone to blood ratio ([1]; 60 min): 50
- bone to muscle ratio ([1]; 60 min): 147
- Biodistribution: Blood ([1]; 60 min (1 hr) post injection): 0.39 ± 0.06 % dose/g
- Biodistribution: Bone ([1]; 60 min (1 hr) post injection): 19.4 ± 2.05 % dose/g
- Biodistribution: Brain ([1]; 60 min (1 hr) post injection): 0.02 ± 0.01 % dose/g
- Biodistribution: Heart ([1]; 60 min (1 hr) post injection): 0.37 ± 0.02 % dose/g
- Biodistribution: Kidney ([1]; 60 min (1 hr) post injection): 2.65 ± 0.44 % dose/g
- Biodistribution: Liver ([1]; 60 min (1 hr) post injection): 1.15 ± 0.13 % dose/g
- Biodistribution: Lung ([1]; 60 min (1 hr) post injection): 0.96 ± 0.05 % dose/g
- Biodistribution: Muscle ([1]; 60 min (1 hr) post injection): 0.13 ± 0.01 % dose/g
- Biodistribution: Pancreas ([1]; 60 min (1 hr) post injection): 0.11 ± 0.01 % dose/g
- Biodistribution: Skin ([1]; 60 min (1 hr) post injection): 0.26 ± 0.04 % dose/g
- Biodistribution: Spleen ([1]; 60 min (1 hr) post injection): 0.66 ± 0.15 % dose/g
- bone to blood ratio ([1]; 120 min): 82
- bone to muscle ratio ([1]; 120 min): 197
- Biodistribution: Blood ([1]; 120 min post injection): 0.21 ± 0.06 % dose/g
- Biodistribution: Bone ([1]; 120 min post injection): 17.1 ± 3.70 % dose/g
- Biodistribution: Brain ([1]; 120 min post injection): 0.02 ± 0.01 % dose/g
- Biodistribution: Heart ([1]; 120 min post injection): 0.28 ± 0.04 % dose/g
- Biodistribution: Kidney ([1]; 120 min post injection): 2.71 ± 0.17 % dose/g
- Biodistribution: Liver ([1]; 120 min post injection): 1.22 ± 0.07 % dose/g
- Biodistribution: Lung ([1]; 120 min post injection): 0.86 ± 0.03 % dose/g
- Biodistribution: Muscle ([1]; 120 min post injection): 0.09 ± 0.01 % dose/g
- Biodistribution: Pancreas ([1]; 120 min post injection): 0.08 ± 0.01 % dose/g
- Biodistribution: Skin ([1]; 120 min post injection): 0.18 ± 0.01 % dose/g
- Biodistribution: Spleen ([1]; 120 min post injection): 0.53 ± 0.04 % dose/g
- Hydroxyapatite Binding (%) [2]: 91.7 ± 5.6%

SMILES: O=C([O-])CN(CCN(CC(=O)[O-])Cc1cc(CCC(=O)NC(P(=O)(O)O)P(=O)(O)O)ccc1[O-])Cc1cc(CCC(=O)NCC(=O)O)ccc1[O-].[68Ga+3] [[^68Ga]1c]
- bone to blood ratio ([1]; 2 min): 0.7
- bone to muscle ratio ([1]; 2 min): 5
- Biodistribution: Blood ([1]; 2 min post injection): 11.7 ± 0.55 % dose/g
- Biodistribution: Bone ([1]; 2 min post injection): 8.40 ± 1.32 % dose/g
- Biodistribution: Brain ([1]; 2 min post injection): 0.27 ± 0.06 % dose/g
- Biodistribution: Heart ([1]; 2 min post injection): 4.57 ± 0.45 % dose/g
- Biodistribution: Kidney ([1]; 2 min post injection): 27.7 ± 5.46 % dose/g
- Biodistribution: Liver ([1]; 2 min post injection): 4.78 ± 0.18 % dose/g
- Biodistribution: Lung ([1]; 2 min post injection): 5.66 ± 0.24 % dose/g
- Biodistribution: Muscle ([1]; 2 min post injection): 1.68 ± 0.11 % dose/g
- Biodistribution: Pancreas ([1]; 2 min post injection): 1.99 ± 0.23 % dose/g
- Biodistribution: Skin ([1]; 2 min post injection): 2.05 ± 0.16 % dose/g
- Biodistribution: Spleen ([1]; 2 min post injection): 3.41 ± 0.08 % dose/g
- bone to blood ratio ([1]; 30 min): 8
- bone to muscle ratio ([1]; 30 min): 49
- Biodistribution: Blood ([1]; 30 min (0.5 hr) post injection): 1.34 ± 0.32 % dose/g
- Biodistribution: Bone ([1]; 30 min (0.5 hr) post injection): 11.3 ± 0.26 % dose/g
- Biodistribution: Brain ([1]; 30 min (0.5 hr) post injection): 0.05 ± 0.02 % dose/g
- Biodistribution: Heart ([1]; 30 min (0.5 hr) post injection): 0.49 ± 0.07 % dose/g
- Biodistribution: Kidney ([1]; 30 min (0.5 hr) post injection): 2.58 ± 0.05 % dose/g
- Biodistribution: Liver ([1]; 30 min (0.5 hr) post injection): 2.21 ± 0.27 % dose/g
- Biodistribution: Lung ([1]; 30 min (0.5 hr) post injection): 0.84 ± 0.11 % dose/g
- Biodistribution: Muscle ([1]; 30 min (0.5 hr) post injection): 0.23 ± 0.05 % dose/g
- Biodistribution: Pancreas ([1]; 30 min (0.5 hr) post injection): 0.39 ± 0.05 % dose/g
- Biodistribution: Skin ([1]; 30 min (0.5 hr) post injection): 0.53 ± 0.18 % dose/g
- Biodistribution: Spleen ([1]; 30 min (0.5 hr) post injection): 0.97 ± 0.01 % dose/g
- bone to blood ratio ([1]; 60 min): 23
- bone to muscle ratio ([1]; 60 min): 102
- Biodistribution: Blood ([1]; 60 min (1 hr) post injection): 0.64 ± 0.17 % dose/g
- Biodistribution: Bone ([1]; 60 min (1 hr) post injection): 14.7 ± 0.66 % dose/g
- Biodistribution: Brain ([1]; 60 min (1 hr) post injection): 0.03 ± 0.01 % dose/g
- Biodistribution: Heart ([1]; 60 min (1 hr) post injection): 0.24 ± 0.08 % dose/g
- Biodistribution: Kidney ([1]; 60 min (1 hr) post injection): 1.88 ± 0.10 % dose/g
- Biodistribution: Liver ([1]; 60 min (1 hr) post injection): 1.85 ± 0.11 % dose/g
- Biodistribution: Lung ([1]; 60 min (1 hr) post injection): 0.42 ± 0.08 % dose/g
- Biodistribution: Muscle ([1]; 60 min (1 hr) post injection): 0.14 ± 0.01 % dose/g
- Biodistribution: Pancreas ([1]; 60 min (1 hr) post injection): 0.23 ± 0.02 % dose/g
- Biodistribution: Skin ([1]; 60 min (1 hr) post injection): 0.33 ± 0.03 % dose/g
- Biodistribution: Spleen ([1]; 60 min (1 hr) post injection): 0.74 ± 0.10 % dose/g
- bone to blood ratio ([1]; 120 min): 39
- bone to muscle ratio ([1]; 120 min): 103
- Biodistribution: Blood ([1]; 120 min post injection): 0.41 ± 0.07 % dose/g
- Biodistribution: Bone ([1]; 120 min post injection): 16.1 ± 2.71 % dose/g
- Biodistribution: Brain ([1]; 120 min post injection): 0.02 ± 0.01 % dose/g
- Biodistribution: Heart ([1]; 120 min post injection): 0.19 ± 0.03 % dose/g
- Biodistribution: Kidney ([1]; 120 min post injection): 2.05 ± 0.27 % dose/g
- Biodistribution: Liver ([1]; 120 min post injection): 1.99 ± 0.09 % dose/g
- Biodistribution: Lung ([1]; 120 min post injection): 0.31 ± 0.06 % dose/g
- Biodistribution: Muscle ([1]; 120 min post injection): 0.16 ± 0.01 % dose/g
- Biodistribution: Pancreas ([1]; 120 min post injection): 0.20 ± 0.03 % dose/g
- Biodistribution: Skin ([1]; 120 min post injection): 0.31 ± 0.04 % dose/g
- Biodistribution: Spleen ([1]; 120 min post injection): 0.71 ± 0.29 % dose/g
- Hydroxyapatite Binding (%) [2]: 89.1 ± 1.0%
